Experimental data published in patent US9884116B2, “FGF modulation of in vivo antibody production and humoral immunity” (priority 2010, dated 2018).

Test system: splenic B cells
Experiment: Proliferation of B cells in vitro (anti-CD40 and anti-IgM stimulated)
Type: cell-based, mouse
Description: Adult wild type mice (C57B16) were sacrificed and spleens were rapidly removed. After dissociation into single cell suspension and red blood cell lysis with NH4Cl, splenocytes were isolated by centrifugation over a Ficoll gradient. Subsequently, B lymphocytes were purified by one of two methods, complement mediated lysis or CD43 negative selection. For complement lysis, cells were incubated with anti-Thy 1 antibody (J1J), anti-L3T4 (GK 1.5), anti-Ly2 (TIB105, ATCC) and rabbit complement (Sigma) for two hours at 37°. CD43 negative selection was carried out using anti-CD43 (Serotec) and Miltenyi microbeads according to the manufacturer's instructions. Cells were cultured in RPMI 1640, 10% fetal calf serum for three days in the presence of anti-CD40 (mAb 1C10, generous gift of Hsiou-Chi Liou, Weill Medical College of Cornell University) and anti-IgM Fab′2 fragments (Jackson Immunoresearch). FGF1 (100 ng/ml) and Heparin (10 ug/ml) were added, and the number of cells was determined in triplicate compared to Heparin alone using a Coulter Counter (Coulter) or trypan blue exclusion with the same results. […]
FGF signaling inhibits splenic B cell proliferation. […] The values represent the percent decrease in total cell number observed with addition of 100 ng/ml FGF1 (determined in triplicate) as compared to heparin (10 ug/ml) alone. x=mean+/− s.e.m. […]

Q: For “FGF1: fibroblast growth factor ligand added exogenously to B cells; stimulates the widest range of FGF receptors”, which “% Decrease in total cell number, mean +/- s.e.m.” value (mean of 6 experiments, 100 ng/ml FGF1 plus heparin vs heparin alone, 3 days, one sample t test p<0.01) is on record?
A: 19.7 +/− 2.8%

Q: And the B cell number (purified spleen B cells with CD40 and BCR signaling activated, incubated in the presence of FGF-1)?
A: inhibited
